Data taken from patent US20030170643A1, “Regulation of apoB treatment and drug screening for cardiovascular and metabolic disorders or syndromes” (priority 1999, published 2003).

System: rat primary hepatocytes
Assay: Secretion of newly synthesized ([35S]methionine-labeled) VLDL-apoproteins by rat primary hepatocytes incubated with fatty acid/BSA complexes
Assay type: cell-based
Details: fatty acid/BSA complexes (0.8 mM FA), VLDL fraction
Procedure: Cells were plated at a density of 2×10^6 cells/ml on 60-mm culture dishes (previously coated with poly-D-lysine) in modified M199 medium (M199, 1% fetal bovine serum [FBS], 1 mM nicotinamide, 0.1 nM insulin, 3 mg/ml choline, 1.1% L-glutamine, 1% BSA). After a four-hour attachment period, the medium was changed (modified M199 identical to the above except BSA was omitted and the concentration of FBS was raised to 10%). The next morning, cells were washed in serum-free medium three times, the experimental media added, and the cells incubated at 37° C. for 4-6 hours. The experimental medium consisted of serum-free RPMI containing the appropriate isotopes (see below) and fatty acids (FA) present at a final concentration of 0.8 mM complexed to BSA (FA:BSA molar ratio=5:1). The fatty acids used were oleic (OA), EPA, and DHA. Control medium was identical, except that BSA (0.16 mM) without fatty acids was present. For metabolic labeling of proteins, [^35S]methionine (70 uCi/ml) was included in the experimental media.
Following the 4-6 hour incubation period, the cell monolayer was washed, then solubilized in 0.1 M NaOH, and the cell protein determined by the Lowry method (Lowry, O. H., Rosebrough, N. J., Farr, A. L., and Randall, R. J. (1951) J Biol Chem 193, 265-75). Each 60 mm dish contained approximately 1-1.5 mg of cell protein. The secreted apoproteins were isolated from the medium either by ultracentrifugation or immunoprecipitation. To isolate the d<1.006 (VLDL) and 1.006<d<1.063 (IDL and LDL) g/ml density classes by centrifugation, sequential 20 hour runs at 48,000 rpm in a 50 Ti Beckman rotor at 4° C. were performed. After the first run at d=1.006, the upper VLDL layer was harvested and the density of the infranatant adjusted to 1.066 g/ml with solid KBr. After being overlaid with a KBr solution of density 1.063, the adjusted infranatant was re-centrifuged as before to isolate the IDL and LDL fractions. In some experiments, the HDL fraction (1.063<d<1.21) was isolated by sequential density centrifugation. Lipoprotein fractions were then dialyzed against 0.9% NaCl containing 10 mM unlabeled methionine, 0.2 mM PMSF, and 2 mM EDTA. Dialyzed lipoproteins were delipidated using 9 volumes of 100% isopropanol. Apoproteins were then collected by centrifugation in a Sorval HB-4 rotor at 10,000 rpm and 4° C. for 20 min, and dissolved in buffer (0.01 M phosphate, pH 7,1 % SDS, 10% glycerol), in preparation for electrophoresis.
To immunoprecipitate apoB or apoE from unfractionated conditioned medium, monospecific rabbit antiserum to rat apoB or apoE was used. Briefly, an aliquot of the medium was mixed with an equal volume of diluted antiserum (1:100 in PBS and 1% BSA) and incubated overnight at 4° C. Staph A was added in the form of immunoprecipitin, and the resultant precipitate containing the immune complexes was washed extensively, the staph A cells removed, and the isolated apoprotein dissolved in gel sample buffer (0.0625M tris/Cl, pH 6.8, 20% glycerol, 2% SDS). Electrophoretic separation of apoVLDL, apoIDL/LDL, and immunoprecipitates was accomplished using 3.5% acrylamide-18% glycerol gels as described (Maguire, G. F., Lee, M., and Connelly, P. W. (1989) J Lipid Res 30, 757-61). An aliquot of each sample was taken for scintillation counting, so that total radioactivity applied to each lane could be determined. Also, protein size standards were included in each gel.
After electrophoresis, the gels were stained, fixed, soaked in Enhance fluor solution, and dried following protocols supplied by the manufacturer. Dried gels were then exposed to X-ray film at −70° C. and signals on the resulting fluorograms were typically quantified by densitometry or phosphorimaging. Using the total radioactivity applied to each lane of the gel and the relative signal intensity of each band in that lane, the radioactivity associated with each apoprotein species was calculated. […]

CCCCCCCC/C=C\CCCCCCCC(=O)O [OA, oleic acid]
secretion of newly synthesized VLDL-ApoB48, percentage of secretion observed with BSA alone: 132 ± 11 percentage | secretion of newly synthesized VLDL-ApoB100, percentage of secretion observed with BSA alone: 96 ± 4 percentage | secretion of newly synthesized VLDL-ApoE, percentage of secretion observed with BSA alone: 84 ± 3 percentage
